What all share (type): cell-based
Data set [1] deals with human dermal fibroblasts (HDF). Kind of data set: LDH activity in cell culture solution of human fibroblasts. The settings on record: young and replicative senescent fibroblasts; 4 days. On the procedure:
(§1) Cytotoxicity against young and senescent cells was investigated with a lactate dehydrogenase (LDH) activity kit (Dojindo Molecular Technologies Inc.).
(§2) Young cells (1×10^3 cells/100 μl/well) or senescent cells (2×10^3 cells/100 μl/well) were dispensed into a 96-well plate, and then cultured overnight in a 37° C., 5% CO2 incubator. Zotarolimus and ABT263 were treated at each concentration, and then incubated for 4 days in a 37° C., 5% CO2 incubator.
(§3) After transferring the cell culture solution to a 1.5 ml tube, it was centrifuged at 4° C. and 12,000 rpm. 100 μl of the supernatant was dispensed into a 96-well plate, and 100 μl of the LDH measurement solution was added to each well, followed by reaction in a CO2 incubator for 30 minutes.
(§4) 50 μl of the LDH reaction stop solution was added, and absorbance was measured at 490 nm using a microplate reader. The level of LDH activity was expressed as a relative value based on the absorbance of the control group treated with only DMSO.
From the above results, in order to confirm whether the decrease in cell growth caused by zotarolimus was due to cell death or simply because the growth stopped, LDH activity was investigated in the cell culture solution.

In data set [2] the test system is human umbilical vascular endothelial cells (HUVEC). Kind of data set: SAβG activity staining in senescent vascular endothelial cells. Conditions: 4 days. The protocol:
(§5) Each cell was treated in a serum-free culture solution containing 0.5 μM doxorubicin for 4 hours. After washing the cells with a serum-free culture solution, the cells were cultured for 4 days in a culture solution containing 10% FBS, and then cellular aging was confirmed by staining with senescence-associated beta galactosidase (SAβG). After dispensing 2×10^5 cells in a 100 mm culture dish, they were cultured in a 37° C., 5% CO2 incubator. When the cells grew to 80-90% in the culture dish, the cells were removed by treatment with trypsin-EDTA, and the number of cells was measured, and the cell population doubling time (PDT) was measured. By successively subculturing the cells in the same process as described above, replication aging was induced. PDT of young fibroblasts was 36 hours, PDT of replicative senescent fibroblasts was 12 days, PDT of young vascular endothelial cells was 24 hours, and PDT of replicative senescent vascular endothelial cells was 7 days. After each sample was dissolved in DMSO, young cells, replicative senescent cells, and premature senescent cells treated with doxorubicin were treated with 100 nM zotarolimus, 100 nM rapamycin, 100 nM ABT263, respectively. After incubation for 4 days in a 37° C., 5% CO2 incubator, the degree of cell growth was confirmed by CCK-8 analysis, the degree of cellular aging was confirmed by senescence-related beta-galactosidase (SAβG) staining, The cells were washed with 1× phosphate buffer solution, and fixed with a phosphate buffer solution containing 3.7% (v/v) paraformaldehyde. After adding 1 mg/ml 5-bromo-4-chloro-3-indolyl-6-D-galactoside, 40 mM citric acid-sodium phosphate (pH 6.0), 5 mM potassium ferricyanide, 5 mM potassium ferrocyanide, 150 mM NaCl, and 2 mM MgCl2 solution, it was reacted at 37° C. for 18 hours. It was stained with eosin as a control stain. Cells stained blue in the cytoplasm were identified using an optical microscope. […]

Data set [3] has the same test system. Kind of data set: LDH activity in cell culture solution of vascular endothelial cells. Conditions: young and replicative senescent HUVEC; 4 days. On the procedure: as §1, §2, §3, §4
In order to confirm whether the decrease in cell growth caused by zotarolimus as described above was due to cell death, LDH activity was investigated in the cell culture solution.

The subject of data set [4] is human retinal pigmented epithelial cells (ARPE-19). Kind of data set: SAβG activity staining in senescent retinal pigmented epithelial cells. The settings on record: premature senescent retinal pigmented epithelial cells by doxorubicin; 100 nM, 4 days; vs DMSO-treated group; p<0.01. On the procedure:
as §5, with “(SAβG).” for “(SAβG). After dispensing 2×10^5 cells in a 100 mm culture dish, they were cultured in a 37° C., 5% CO2 incubator. When the cells grew to 80-90% in the culture dish, the cells were removed by treatment with trypsin-EDTA, and the number of cells was measured, and the cell population doubling time (PDT) was measured. By successively subculturing the cells in the same process as described above, replication aging was induced. PDT of young fibroblasts was 36 hours, PDT of replicative senescent fibroblasts was 12 days, PDT of young vascular endothelial cells was 24 hours, and PDT of replicative senescent vascular endothelial cells was 7 days.”

Experimental findings from patent US20220023271A1, “COMPOSITION FOR PREVENTING OR TREATING CELLULAR SENESCENCE-RELATED DISEASES COMPRISING ZOTAROLIMUS AS ACTIVE INGREDIENT” (RESEARCH COOPERATION FOUNDATION OF YEUNGNAM UNIVERSITY, priority 2018, published 2022) are described below.

On to `CO[C@H]1C[C@@H]2CC[C@@H](C)[C@@](O)(O2)C(=O)C(=O)N2CCCC[C@H]2C(=O)O[C@H]([C@H](C)C[C@@H]2CC[C@H](n3cnnn3)[C@H](OC)C2)CC(=O)[C@H](C)/C=C(\C)[C@@H](O)[C@@H](OC)C(=O)[C@H](C)C[C@H](C)/C=C/C=C/C=C/1C` [zotarolimus], for which the “LDH activity in the cell culture medium” value in data set [1] is “no difference in LDH activity”. In addition, in data set [2] (premature senescent HUVEC by doxorubicin, 100 nM each), the “SAβG activity staining compared with rapamycin” value is listed as “significantly decreased than rapamycin”. The SAβG activity staining entry was “significantly decreased” in data set [2] (premature senescent HUVEC by doxorubicin, 100 nM, vs DMSO-treated group, p<0.01) and “significantly decreased” in data set [4]. In addition, in data set [2] (replicative senescent HUVEC, 100 nM, vs DMSO-treated group and rapamycin-treated group), the SAβG activity result is “significantly decreased”. Also, the “LDH activity in the cell culture solution” value in data set [3] is “no difference in LDH activity”.
